Test results reported in patent US5726203A, “Qinghaosu derivatives against AIDS” (priority 1993, dated 1998).
Counter-ions that a name gives are not always drawn. Like-named read-outs stand apart in the source and are kept apart here.

Columns and labels:
HIV-1 (MT4) = assay: Anti-HIV effect on MT4 cells, virus antigen expression (immunoenzymatic method); assay type: cell-based
Description: The virus used was HIV-1 which had been obtained from Professor Montagnier of the Pastear Institute, France. The virus titer used in the experiment was 1×10^4 TCID50 /ml. The cell culture used was CEM cell line which was cultivated in the HIV laboratory of Institute of Virology, Chinese Academy of Preventive Medicine, for cultivation storage of HIV-1.
The compounds used in the experiment were qinghaosu, dihydroqinghaosu, Artesunate, Artemether, dihydroqinghaosu-methylcarbamate, dihydroqinghaosu-benzenecarbamate, qinghaosu-morpholinyl propylether maleate, dihydroqinghaosu-diethyl amino ethyl ether maleate, deoxyqinghaosu-morpholinyl ethyl ether maleate, qinghaosu-morpholinyl propanol ether maleate, qinghaosu-3,5-dimonpholinyl methyl-4-hydroxy benzyl ether maleate, dihydroqinghaosu-m-chlorobenzoate, qinghaosu-3-pyrrolidinylmethyl-4-hydroxybenzoate oxalate, and qinghaosu-3-morpholinylmethyl-4-hydroxybenzoate oxalate. […] The concentration of the original solution of these compounds were all 1 mg/ml.
(§1) a. Freshly cultured MT4 cells (5×10^5 /ml) were co-cultivated with the virus fluid (10^3 TCID50 /ml) in a CO2 incubator at 37° C. for 1-1.5 hours. RPMI 1640 complete medium (containing 10% Bovine serum and antibiotics, such as penicillin) was used to wash the unbound virus.
(§2) Complete medium was added to correct the concentration for use.
(§3) The experiment was carried out on the plates with 96 wells. 0.1 ml of the above-mentioned infected MT4 cell suspension was added into each well, and then 0.1 ml of various concentrations of the drugs were added. […] Each concentration of the drugs was added into two wells. Both the experiment group and the control group were incubated in a CO2 incubator at 37° C. The drug solution were changed 3 days later, and the following observations were carried out 6 days afterwards.
b. Observation on the growth situation of cells. Trypan blue dye was used to observe the quantity of live cells in each group.
(§4) c. Determination of the virus antigen expression. The immunoenzymatic method was used to examine the virus antigen expression. Cells from each group were separately smeared in two wells. They were fixed with cold acetone, HIV-positive serum was dropped into the wells. After incubated in a CO2 incubator at 37° C. for 30 minutes, they were washed with PBS for 3 times. Enzyme-labelled SPA was dropped into the wells. They were incubated in the same condition for 30 minutes, washed with PBS for 3 times, and then put in substrate solution to stain for 2-3 minutes, washed with distilled water, and observed under microscope. Normal cells were colorless, whereas virus-carrying cells appeared browrish red.
The mark used were as follows:
The experiment was repeated two to three times.
The concentration of the original fluid of these compounds were all 1 mg/ml. 0.1 ml was taken and added into 0.1 ml of virus-carrying cell suspension, thus the reaction concentrations were as follows: in the original fluid group, 0.1 mg/0.2 ml, i.e., 0.5 mg/ml; in 1×10^-1group, 0.05 mg/ml; in 1×10^-2 group, 0.005 mg/ml; in 1×10^-3 group, 0.0005 mg/ml, i.e., 0.5 μg/ml; and on the analogy of this.

Acute toxicity in mice = assay type: in vivo; settings: mouse, in vivo
Protocol: Animals: Hybrid swiss strain mice (provided by Animal House of Institute of Chinese Mateia Media, China Academy of Traditional Chinese Medicine), 20-22 grams, less than 6 weeks age of both sexes fed in laboretory for 3-5 days observation and a random taking food and drinking.
Drugs: Dihydroqinghaosu-methylcarbamate and dihydroqinghaosu-benzenecarbamate.
Above two drugs in powder form were dissolved into peanut oil. The biggest dose were 2000 mg/kg and 2161 mg/kg respectively. The distances between two dose groups were 0.7 and 0.68 respectively, with 5 dose groups each drugs.
Method: The mice were given single dose of above compound respectively intragastrically, the acute intoxication manifestrations were observed the LD value (LD5, LD50 and LD95) and B value were determined by three days mortality.

U937 HIV-1 [1] = assay: Inhibition effect on HIV-1 infected U937 cells, activity of reverse transcriptase; assay type: cell-based; settings: 50 μg/ml, control 24502
Description: (§5) Furthermore, a part of the compounds according to the present invention were used to test their inhibition effect on U937 cell line (macrophage cell line)according to the methods in Experiment 1.

U937 HIV-1 [2] = assay: Inhibition effect on HIV-1 infected U937 cells (macrophage cell line), HIV antigen test (IE); assay type: cell-based; settings: U937 HIV-1; 50 μg/ml
Protocol: as §1, §2, §3, §4, §5

Plasmodium Berghei = assay: Peters' four day inhibition test in mice, erythrocytic stage of Plasmodium Berghei; assay type: in vivo; settings: once a day D0-D3, Hybrid Kunming strain mice, read-out: SD50 (the source's name)
Description: Effect on Erythrocytic Stage of Plasmodium Berghei 1. "Four day inhibition test" in mice To determinate the SD50 with Peters' "four day inhibition test". Hybrid Kunming strain mice, body weight 18-22 g, were inculated with 1×10^7 parasites infected RBC intraperitoneally on D0. Dihydroqinghaosu-methylcarbamate, dihydroqinghaosu-butylcarbamate, dihydroqinghaosu-benzenecarbamate and dihydroqinghaosu-4-nitrobenzenecarbamate with different concentration were given once a day from D0 -D3. Blood smears from mouse's tail were made on D4, stained with Gimsa reagent and examined under microscope to count the infected and uninfected erthrocyte to get infected rate. Inhibitory rates of different dosages were calculated by following formula. The SD50 was calculated by the simplified probit analysis: [formula]

[3] = cited from earlier work

Row | Molecule | effect on HIV-1 (MT4), virus antigen expression (HIV-1 (MT4); 1 × 10^-1 (50 μg/ml)) | effect on HIV-1 (MT4), virus antigen expression (HIV-1 (MT4); 1 × 10^-2 (5 μg/ml)) | effect on HIV-1 (MT4), virus antigen expression (HIV-1 (MT4); 1 × 10^-3 (0.5 μg/ml)) | further results
1 | Deoxyquinghaosu-morpholinyl propanol ether maleate | - (positive cells were not seen in the whole well) | + (there were 2-3 or more positive cells in the whole well) | - (positive cells were not seen in the whole well) | 
2 | CC1CCC2C(C)C(OCc3cc(CN4CCOCC4)c(O)c(CN4CCOCC4)c3)OC3OC4(C)CCC1C32OO4.O=C(O)/C=C\C(=O)O (stereo not shown) [qinghaosu-3,5-dimonpholinyl methyl-4-hydroxy benzyl ether maleate] | + (there were 2-3 or more positive cells in the whole well) | + (there were 2-3 or more positive cells in the whole well) | + (there were 2-3 or more positive cells in the whole well) | 
3 | qinghaosu-morpholinyl propanol ether maleate | + (there were 2-3 or more positive cells in the whole well) | + (there were 2-3 or more positive cells in the whole well) | + (there were 2-3 or more positive cells in the whole well) | 
4 | qinghaosu-3-pyrrolidinylmethyl-4-hydroxybenzoate oxalate | - (positive cells were not seen in the whole well) | + (there were 2-3 or more positive cells in the whole well) | - (positive cells were not seen in the whole well) | 
5 | C[C@@H]1CC[C@H]2[C@@H](C)C(=O)O[C@@H]3O[C@@]4(C)CC[C@@H]1[C@]32OO4 [Qinghaosu, Qinghaosu (Artemisinin)] | - (positive cells were not seen in the whole well) | - (positive cells were not seen in the whole well) | + (there were 2-3 or more positive cells in the whole well) | effect on HIV-1 (MT4), virus antigen expression (HIV-1 (MT4); 1 × 10^-4 (0.05 μg/ml)): + (there were 2-3 or more positive cells in the whole well)
6 | CO[C@H]1O[C@@H]2O[C@@]3(C)CC[C@H]4[C@H](C)CC[C@@H]([C@H]1C)[C@@]24OO3 [Artemether, reference compound] | - (positive cells were not seen in the whole well) | - (positive cells were not seen in the whole well) | ± (there were only 1-2 doubtful positive cells in whole well) | LD50 (Acute toxicity in mice; im, I.M. (Intramuscular injection)): 263 mg/kg; effect on HIV-1 (MT4), virus antigen expression (HIV-1 (MT4); 1 × 10^-4 (0.05 μg/ml)): + (there were 2-3 or more positive cells in the whole well)
7 | C[C@H]1[C@@H](O)O[C@@H]2O[C@@]3(C)CC[C@H]4[C@H](C)CC[C@@H]1[C@@]24OO3 [Dihydroqinghaosu, dihydroqinghaosu, reference compound] | - (positive cells were not seen in the whole well) | - (positive cells were not seen in the whole well) | ± (there were only 1-2 doubtful positive cells in whole well) | LD50 (Acute toxicity in mice; po, P.O. (per os)): 765 mg/kg; effect on HIV-1 (MT4), virus antigen expression (HIV-1 (MT4); 1 × 10^-4 (0.05 μg/ml)): + (there were 2-3 or more positive cells in the whole well)
8 | C[C@H]1[C@H](OC(=O)CCC(=O)O)O[C@@H]2O[C@@]3(C)CC[C@H]4[C@H](C)CC[C@@H]1[C@@]24OO3 [Artesunate, reference compound] | - (positive cells were not seen in the whole well) | - (positive cells were not seen in the whole well) | - (positive cells were not seen in the whole well) | Activity of reverse transcription (CPM) (U937 HIV-1 [1]): 4846 CPM; LD50 (Acute toxicity in mice; I.V. (Intravenous injection)): 769 mg/kg; effect on HIV-1 (MT4), virus antigen expression (HIV-1 (MT4); 1 × 10^-4 (0.05 μg/ml)): + (there were 2-3 or more positive cells in the whole well); Antigen test (IE) (U937 HIV-1 [2]): - (positive cells were not seen in the whole well)
9 | CC1CCC2C(C)C(OC(=O)Nc3ccc([N+](=O)[O-])cc3)OC3OC4(C)CCC1C32OO4 (stereo not shown) [Dihydroqinghaosu-4-nitrobenzenecarbamate, Dihydroqinghaosu-P-Nitrobenzenecarbamate] |  |  |  | ED50 (Plasmodium Berghei): 0.3 mg/kg
10 | Nc1ccn([C@H]2CC[C@@H](CO)O2)c(=O)n1 [DDC, di-deoxycytidine] |  |  |  | toxicity to peripheral nerves ([3]; appears 6 weeks after drug administration): toxicity to peripharal nerves
11 | CCCCNC(=O)OC1OC2OC3(C)CCC4C(C)CCC(C1C)C24OO3 (stereo not shown) [Dihydroqinghaosu-butylcarbamate, dihydroqinghaosu-butylcarbamate] |  |  |  | ED50 (Plasmodium Berghei): 0.25 mg/kg
12 | CC1CCC2C(C)C(OC(=O)c3cccc(Cl)c3)OC3OC4(C)CCC1C32OO4 (stereo not shown) [Dihydroqinghaosu-m-chlorobenzoate, dihydroqinghaosu-m-chlorobenzoate] | - (positive cells were not seen in the whole well) | - (positive cells were not seen in the whole well) | + (there were 2-3 or more positive cells in the whole well) | 
13 | CCN(CC)CCOC1OC2OC3(C)CCC4C(C)CCC(C1C)C24OO3 (stereo not shown) [dihydroqinghaosu-diethyl amino ethyl ether maleate] | ± (there were only 1-2 doubtful positive cells in whole well) | + (there were 2-3 or more positive cells in the whole well) | + (there were 2-3 or more positive cells in the whole well) | 
14 | O=c1[nH]cnc2c1ncn2[C@H]1CC[C@@H](CO)O1 [DDI, di-deoxytrophicardyl] |  |  |  | toxicity to peripheral nerves ([3]; in vivo): toxicity to peripharal nerves
15 | qinghaosu-3-morpholinylmethyl-4-hydroxybenzoate oxalate | ± (there were only 1-2 doubtful positive cells in whole well) | + (there were 2-3 or more positive cells in the whole well) | + (there were 2-3 or more positive cells in the whole well) | 
16 | qinghaosu-morpholinyl propylether maleate | - (positive cells were not seen in the whole well) | + (there were 2-3 or more positive cells in the whole well) | + (there were 2-3 or more positive cells in the whole well) | 
